Series [1] is described as follows: Pharmacokinetics in Sprague-Dawley rats. The conditions noted are these: rat; for detection in serum samples after oral dose of prodrug: p.o. 25 mg/kg.
Series [2] in a line: Serum stability studies of prodrugs. The format is in vitro ADME. As to conditions: Figure S8.
Series [3] is described as follows: in vitro. The conditions noted are these: human, Caco-2, […].
A short description of series [4]: Stability under acidic and alkaline conditions. The conditions noted are these: 24 h at 37 °C. It is filed as physicochemical.
The nature of series [5]: Estimated pKa of the acyl-sulfonyl linker. It is filed as physicochemical.
Series [6] relates to TB infection. As to conditions: dosed intraperitoneally; cited from earlier work.
Series [7] has as its system M. tuberculosis H37Rv. As to the kind of experiment: M. tuberculosis H37Rv MIC assay under iron-deficient conditions. The format is cell-based. As to conditions: Mycobacterium tuberculosis, pH 6.6.
The nature of series [8]: Aqueous solubility. It is filed as physicochemical.
Series [9] relates to UDP-gluguronosyl transferase (UDPGT). The experiment in a line: Glucuronidation study, rat liver microsomes. The conditions noted are these: UDPGA. A general note: Liver microsomes are vesicles of endoplasmic reticulum, rich in cytochrome P450 enzymes.
For series [10] the test system is unchanged. As to the kind of experiment: Glucuronidation study, human liver microsomes. The conditions noted are these: UDPGA.

We go through eleven molecules from publication PMC4667731 (Journal of medicinal chemistry, 2015).

Entries after “also recorded” stand apart in the source; their conditions may differ.

On to “2′, 3′ -O-di-Acetyl-5′ -O-[N-(2-hydroxybenzoyl)sulfamoyl]adenosine [Compound 2]”, for which the “detection in serum samples after oral dose of prodrug” value in series [1] is given as “neither of the parent compounds was detected”. Besides, the “serum stability (acetate cleavage)” value in [2] is “slowly hydrolyzed”.

With “5′-O-[N-(2-Acetoxybenzoyl)sulfamoyl]-2′, 3′-O-di-acetyladenosine [Compound 3]”, the “detection in serum samples after oral dose of prodrug” value in [1] (25 mg/kg) is recorded as “neither of the parent compounds was detected; also recorded: only a negligible amount of 1 could be detected”. In [2], the “serum stability (acetate cleavage)” value is listed as “rapidly cleaved”.

The term Papp A→B denotes how fast a substance crosses the layer from the apical side. A lower Papp A→B goes with slow passage. One may read the pKa as the pH at which an ionisable group is half protonated. The MIC is the least concentration at which growth counts as inhibited. A high value points to a less susceptible organism. As to `CCN(CC)CC.Nc1ncnc2c1ncn2[C@@H]1O[C@H](COS(=O)(=O)NC(=O)c2ccccc2O)[C@@H](O)[C@H]1O` [Compound 1, 5′-O-[N-(salicyl)sulfamoyl]adenosine], the Papp A→B in series [3] turned out to be 1.2 ×10⁻⁶ cm/s. For the same molecule, the degradation entry in [4] (acidic (pH 1)) and in series [4] (alkaline (pH 12)) was “less than 5%” in each case. Further, the pKa in [5] is about 3. Moreover, the “efficacy in acute murine TB infection model” value in series [6] is listed as “effective”. The molecule also returned an MIC in series [7] of 0.2 µg/mL.

For orientation: Cmax means the maximum level reached in the sampled fluid or tissue. The molecule `CCN(CC)CC.Nc1ncnc2c1ncn2[C@@H]1O[C@H](CNS(=O)(=O)NC(=O)c2ccccc2O)[C@@H](O)[C@H]1O` [Compound 4, 5′-N-[N-(2-Hydroxybenzoyl)sulfamoyl]amino-5′ -deoxyadenosine triethylammonium salt] came in with a peak concentration (Cmax) in series [1] (female, Sprague-Dawley, in vivo, po, 25 mg/kg) of 1400 nM. The pKa in [5] was about 5. Also, the MIC in [7] turned out to be 0.11 µg/mL.

With `CCN(CC)CC.Nc1ccc(C(=O)NS(=O)(=O)NC[C@H]2O[C@@H](n3cnc4c(N)ncnc43)[C@H](O)[C@@H]2O)c(O)c1` [Compound 5, 5′-N-[N-(4-Amino-2-hydroxybenzoyl)sulfamoyl]amino-5′-deoxyadenosine], the pKa in series [5] is about 6. Also, inhibition of growth in series [7] (MIC) required 1.81 µg/mL.

As to `CCN(CC)CC.O=C(NS(=O)(=O)NC[C@H]1O[C@@H](n2cnc3c(NC4CC4)ncnc32)[C@H](O)[C@@H]1O)c1ccccc1O` [Compound 6, N^6-Cyclopropyl-5′-deoxy-5′-N-[N-(2-hydroxybenzoyl)sulfamoyl]aminoadenosine triethylammonium salt], the MIC in series [7] amounted to 0.06 µg/mL.

Consider `CCN(CC)CC.O=C(NS(=O)(=O)NC[C@H]1O[C@@H](n2cnc3c(NC4CC4)nc(-c4ccccc4)nc32)[C@H](O)[C@@H]1O)c1ccccc1O` [Compound 7, N^6-Cyclopropyl-5′-deoxy-5′-N-[N-(2-hydroxybenzoyl)sulfamoyl]amino-2-phenyladenosine triethylammonium salt], for which, in [8], the “aqueous solubility” value is listed as “poor aqueous solubility”. This molecule came in with a minimal inhibitory concentration (MIC) in [7] of 4.27 µg/mL.

In series [7], `CCN(CC)CC.Nc1ncnc2c1ncn2[C@@H]1O[C@H](CNS(=O)(=O)NC(=O)c2ccccc2O)[C@@H](O)[C@H]1F` [Compound 8, 5′-N-[N-(2-Hydroxybenzoyl)sulfamoyl]amino-2′, 5′-dideoxy-2′-fluoroadenosine triethylammonium salt] returned an MIC of 0.11 µg/mL.

Consider `CCN(CC)CC.Nc1nc(-c2ccccc2)nc2c1ncn2[C@@H]1O[C@H](CNS(=O)(=O)NC(=O)c2ccccc2O)[C@@H](O)[C@H]1F` [Compound 9, 2′, 5′-Dideoxy-2′-fluoro-5′-N-[N-(2-hydroxybenzoyl)sulfamoyl]amino-2-phenyladenosine triethylammonium salt], for which the MIC in [7] was 1 µg/mL.

With `CCN(CC)CC.Nc1ncnc2c1ncn2[C@@H]1O[C@H](CNS(=O)(=O)NC(=O)c2ccccc2O)C[C@H]1F` [Compound 10, 2′, 3′, 5′-Trideoxy-5′-N-[N-(2-hydroxybenzoyl)sulfamoyl]amino-2′-fluoroadenosine triethylammonium salt], it took 0.43 µg/mL to inhibit growth in [7] (MIC).

On to `COc1c(C)c2c(c(O)c1C/C=C(\C)CCC(=O)O)C(=O)OC2` [MPA, Mycophenolic Acid], for which the “glucuronidated at 60 min” value in series [9] came to 30%; in series [10], 85%.
